≈ marks a conversion by molar mass, not a printed value. Values belong to the compound of their own block, whether it stands above or below them. Where a SMILES comes first, the peptide text is derived from it. [ ]: non-standard residue; d: D form. The star is where a group is joined. Orn(α-tetramethylguanidino) = CN(C)C(=N[C@@H](CCCN)C(=O)*)N(C)C; Orn = NCCC[C@H](N)C(=O)O
Legend:
[1] = tested on: P. aeruginosa DSM 1117 (ATCC 27853); set-up: method as in Bluhm et al., 2015; settings: 50% MHB; ref Bluhm et al., 2015; cited from earlier work
[2] = tested on: E. coli DSM 1103 (ATCC 25922); type: cell-based, Escherichia coli; settings: DSM 1103, 24 h
Experimental: (§1) MICs of P. aeruginosa strains DSM 1117 (ATCC 27853), DSM 3227 (ATCC 19429), and DSM 9644 were determined in a microdilution broth assay using 50 or 100% MHB (11.5 and 23 g/L MHB, respectively) whereas MICs of E. coli DSM 1103 (ATCC 25922) and K. pneumoniae DSM 681 (ATCC 10031) were determined in TSB (30 g/L TSB). Peptides (1 g/L in water) were serially two-fold diluted in a 96-well microtiter plate (PS, sterile, flat bottom) in 50 μL of the corresponding medium to final concentrations of 512–4 μg/mL. Bacteria were grown in nutrient broth overnight and diluted to a cell concentration of 1.5 × 10^7 cells/mL in the corresponding medium. Cell densities were determined by using the McFarland standard as reference. An aliquot (50 μL) of the cell culture was added to each well and incubated (37°C, 24 h). The OD595 was determined in a SpectraMax 340PC (Molecular Devices, Sunnyvale, USA). Additionally, MIC values were also determined for high bacteria densities (5 × 10^8 cells/mL) corresponding to the conditions used for TEM, as described above.

[3] = tested on: K. pneumoniae DSM 681 (ATCC 10031); type: cell-based, Klebsiella pneumoniae; settings: DSM 681, 24 h
Experimental: as §1

[4] = tested on: Primary rat cardiomyocytes; assay: in vitro; type: cell-based; settings: 24 h
Experimental: (§2) Human embryonic kidney (HEK293) and HeLa cells were cultured in Dulbecco's modified Eagle's/Ham's F-12 medium [DMEM/F-12 (1:1)] supplemented with FBS (10% v/v), penicillin, and streptomycin (1000 units each). Primary rat cardiomyocytes (Innoprot, Elexalde Derio, Spain) were grown in medium supplemented with FBS (20% v/v), horse serum (5% v/v), L-glutamine (2 mmol/L), sodium pyruvate (2 mmol/L), MEM non-essential amino acids (Gibco, 0.1 mmol/L), penicillin, and streptomycin (1000 units each). Surfaces for cardiomyocyte growth were coated with attachment factor first. Cells (20,000/well) were seeded into a 96-well plate (PS, sterile, flat bottom), incubated for 24 h (37°C, 5% CO2), and washed twice with PBS (100 μl/well) prior to adding colorless medium (88 μL) and peptide solution (12 μL; 5, 2.5, 1.25, […], and 0.625 g/L in PBS). Positive controls were triton X-100 (1%, v/v) and melittin (60 mg/L) as lytic peptide, whereas PBS (12%, v/v) served as negative control. After an incubation period of 24 h, supernatant (25 μL) was mixed with lactate dehydrogenase (LDH) substrate (175 μL; 0.57 mmol/L sodium pyruvate, 0.24 mmol/L NADH disodium salt, 32 mmol/L potassium dihydrogen phosphate, 66 mmol/L dipotassium phosphate) in 96-well plates (PS, sterile, flat bottom). Absorbance was recorded at 340 nm every 3 min for 30 min on the Paradigm microplate reader. Due to the total release of LDH upon triton X-100 treatment, the control contained high LDH concentrations resulting in a fast substrate turnover that was only linear for the first 6 min.
(§3) The MTT cell viability assay relied on the same cell culture. Remaining medium was replaced by a mixture of fresh colorless medium (100 μL) and MTT (10 μL; 5 g/L in PBS) and incubated for 4 h (37°C, 5% CO2). A solution of sodium dodecyl sulfate (100 μL; 10%, w/v) dissolved in hydrochloric acid (10 mmol/L) was added, incubated (16 h), and the absorbance recorded at 590 nm relative to the reference at 650 nm (Paradigm microplate reader). The relative cell viability was calculated by [(ODPeptide − ODTriton)/(ODPBS − ODTriton)] × 100% and half-maximal inhibitory concentrations (IC50) with an Excel-template from cell biology protocols (www.sciencegateway.org/ protocols/cellbio/drug/hcic50.htm). For statistical analysis an unpaired t-test was applied using GraphPad Prism 5.0.

HeLa cells = assay: in vitro; type: cell-based; settings: 24 h
Experimental: as §2, §3

in vitro [5] = type: cell-based; settings: human
Experimental: as §2, §3

HEK293 cells = assay: in vitro; type: cell-based, human; settings: 24 h
Experimental: as §2, §3

in vitro [6] = type: cell-based, human; settings: human
Experimental: as §2, §3

in vitro [7] = settings: mouse, mouse serum, Half-life time mouse serum, 37°C
Experimental: Peptide solutions (1 g/L) were added to mouse serum to obtain final concentrations of 70 mg/L peptide and incubated under constant shaking at 37°C. After 0, 1, 2, 3, and 6 h aliquots (95 μL) were precipitated with aqueous TCA (25 μL, 15% w/v), incubated for 10 min on ice, and centrifuged (5 min, 12,000 × g, Eppendorf mini spin centrifuge). An aliquot of the supernatant (95 μL) was neutralized with sodium hydroxide (8 μL, 1 mol/L) and diluted with aqueous acetonitrile solution (3% acetonitrile, 0.1% TFA; 200 μL). Peptides were quantified by the peak areas obtained by analytical RP-HPLC on a Jupiter C18-column (ID: 2 mm) using a linear aqueous acetonitrile gradient with 0.1% (v/v) TFA (absorbance recorded at 214 nm). Peak areas of all time points were normalized to the initial peak area obtained after “0 min incubation” (= 100%). Experiments were carried out as triplicates in parallel and half-life times were calculated using GraphPad Prism 5.0.

P. aeruginosa elastase [8] = assay: P. aeruginosa elastase (0.012 U/μL) in Tris-HCl (5 mmol/L, pH 8.3); settings: 37°C, up to 6 h
P. aeruginosa elastase [9] = biological target: T1, P. aeruginosa elastase (Pseudomonas aeruginosa, UniProt P14756); assay: Elastase assay (proteolytic stability); type: in vitro ADME; settings: Pseudomonas aeruginosa; 0.5 g/L peptide, elastase 12 units/mL, Tris-HCl pH 8.3, 37°C; read-out: Half-life time with Pseudomonas elastase
T1 construct: purchased Merck (Darmstadt, Germany)
T1 sequence (P14756 198-498): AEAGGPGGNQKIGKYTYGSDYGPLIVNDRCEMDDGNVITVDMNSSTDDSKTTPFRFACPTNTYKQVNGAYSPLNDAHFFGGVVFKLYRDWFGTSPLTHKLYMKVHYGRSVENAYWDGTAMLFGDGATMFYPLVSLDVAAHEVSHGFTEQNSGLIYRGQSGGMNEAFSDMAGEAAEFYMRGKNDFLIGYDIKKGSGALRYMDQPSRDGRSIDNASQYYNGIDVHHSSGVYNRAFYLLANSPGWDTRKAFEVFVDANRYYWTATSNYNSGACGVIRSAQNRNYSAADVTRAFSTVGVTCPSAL
Experimental: A stock solution of P. aeruginosa elastase (0.26 U/μL) was prepared in Tris-HCl (5 mmol/L, pH 8.3) and stored at −80°C. Peptides (0.5 g/L in 5 mmol/L Tris-HCl, pH 8.3) were incubated with elastase (0.012 U/μL) at 37°C under constant shaking (450 rpm) for 0, 0.5, 2, 4, and 6 h. Aliquots (10.5 μL) were precipitated with a mixture of acetonitrile and ethanol (1:1 v/v) containing 0.1% TFA (21 μL), centrifuged, the supernatant transferred into a new tube, and dried in vacuum. Samples were dissolved in aqueous acetonitrile (3% v/v) containing TFA (0.1% v/v) and analyzed by RP-HPLC using the conditions described above.

MIC E. coli ATCC 25922 [2]: 8 µg/mL (≈ 3.49 µM) | MIC K. pneumoniae DSM 681 [3]: 8 µg/mL (≈ 3.49 µM)
Compound: CC[C@H](C)[C@H](NC(=O)[C@H](CCCN)N=C(N(C)C)N(C)C)C(=O)N[C@@H](CCCN)C(=O)N[C@@H](CCCNC(=N)N)C(=O)N1CCC[C@H]1C(=O)N[C@H](C(=O)N[C@@H](Cc1ccc(O)cc1)C(=O)N[C@@H](CCCN)C(=O)N1CCC[C@H]1C(=O)N[C@@H](CCCNC(=N)N)C(=O)N1CCC[C@H]1C(=O)N[C@@H](CCCNC(=N)N)C(=O)N1CCC[C@H]1C(=O)N1CCC[C@H]1C(=O)N[C@@H](Cc1c[nH]cn1)C(=O)N1CCC[C@H]1C(=O)N[C@@H](CCCNC(=N)N)C(=O)N[C@@H](CC(C)C)C(=O)O)C(C)C [Api755, gu-OIORPVYOPRPRPPHPRL-OH, reference compound] ({Orn(α-tetramethylguanidino)}-I[Orn]RPVY[Orn]PRPRPPHPRL-OH)
times more active than Api137 against P. aeruginosa [1]: 16

Compound: CC[C@H](C)[C@H](NC(=O)[C@H](CCCN)N=C(N(C)C)N(C)C)C(=O)N[C@@H](CCCN)C(=O)N[C@H](C(=O)N[C@@H](CCCN)C(=O)N[C@H](C(=O)N[C@@H](CCCN)C(=O)N[C@@H](CCCNC(=N)N)C(=O)N1CCC[C@H]1C(=O)N[C@H](C(=O)N[C@@H](Cc1ccc(O)cc1)C(=O)N[C@@H](CCCN)C(=O)N1CCC[C@H]1C(=O)N[C@@H](CCCNC(=N)N)C(=O)N1CCC[C@H]1C(=O)N[C@@H](CCCNC(=N)N)C(=O)N1CCC[C@H]1C(=O)N1CCC[C@H]1C(=O)N[C@@H](Cc1c[nH]cn1)C(=O)N1CCC[C@H]1C(=O)N[C@@H](CCCNC(=N)N)C(=O)N[C@@H](CC(C)C)C(=O)O)C(C)C)[C@@H](C)CC)[C@@H](C)CC [Api796, GuO(IO)3RPVYOPRPRPPHPRL] ({Orn(α-tetramethylguanidino)}-I[Orn]I[Orn]I[Orn]RPVY[Orn]PRPRPPHPRL-OH)
MIC E. coli ATCC 25922 [2]: 8 µg/mL (≈ 2.91 µM) | IC50 on cell viability [4]: >600 µg/mL | MIC K. pneumoniae DSM 681 [3]: 16 µg/mL (≈ 5.83 µM) | IC50 on cell viability (HeLa cells): >600 µg/mL | viability at 24 h, 0.6 g/L (in vitro [5]): 61 ± 14% | IC50 on cell viability (HEK293 cells): >600 µg/mL | viability at 24 h, 0.6 g/L (in vitro [6]): ~60% | half-life at 70 mg/L (in vitro [7]): 4.15 h

Compound: gu-O(IO)2RPVYOPRPRPPHPRL-OH
not cleaved (P. aeruginosa elastase [8]): 92 ± 4% detected after 30 min and for all later time points (6 h)

Compound: CC(C)C[C@H](NC(=O)[C@H](CCCNC(=N)N)NC(=O)[C@@H]1CCCN1C(=O)[C@H](Cc1c[nH]cn1)NC(=O)[C@@H]1CCCN1C(=O)[C@@H]1CCCN1C(=O)[C@H](CCCNC(=N)N)NC(=O)[C@@H]1CCCN1C(=O)[C@H](CCCNC(=N)N)NC(=O)[C@@H]1CCCN1C(=O)[C@H](CCCN)NC(=O)[C@H](Cc1ccc(O)cc1)NC(=O)[C@@H](NC(=O)[C@@H]1CCCN1C(=O)[C@H](CCCNC(=N)N)NC(=O)[C@H](CCCN)NC(=O)[C@H](Cc1c[nH]c2ccccc12)NC(=O)[C@H](CCCN)NC(=O)[C@H](Cc1c[nH]c2ccccc12)NC(=O)[C@H](CCCN)N=C(N(C)C)N(C)C)C(C)C)C(=O)O [Api793, guO(WO)2RPVYOPRPRPPHPRL] ({Orn(α-tetramethylguanidino)}-W[Orn]W[Orn]RPVY[Orn]PRPRPPHPRL-OH)
MIC E. coli ATCC 25922 [2]: 8 µg/mL (≈ 3 µM) | IC50 on cell viability [4]: >600 µg/mL | MIC K. pneumoniae DSM 681 [3]: 16 µg/mL (≈ 6 µM) | IC50 on cell viability (HeLa cells): 640 ± 150 µg/mL (≈ 240 µM) | IC50 on cell viability (HEK293 cells): 640 ± 50 µg/mL (≈ 240 µM) | half-life at 70 mg/L (in vitro [7]): 4.1 h

Compound: gu-ONNRPVYIPRPRPPHPRL-OH
not cleaved (P. aeruginosa elastase [8]): fully recovered after an incubation period of 6 h

Compound: CC[C@H](C)[C@H](NC(=O)[C@H](CCCCN)NC(=O)[C@H](CCC(=O)O)NC(=O)[C@H](CCCCN)NC(=O)[C@H](CO)NC(=O)[C@H](CCCCN)NC(=O)[C@H](CCCNC(=N)N)NC(=O)[C@H](Cc1ccccc1)NC(=O)[C@H](Cc1ccccc1)NC(=O)[C@H](CC(=O)O)NC(=O)CNC(=O)[C@H](CC(C)C)NC(=O)[C@@H](N)CC(C)C)C(=O)NCC(=O)N[C@@H](CCCCN)C(=O)N[C@@H](CCC(=O)O)C(=O)N[C@@H](Cc1ccccc1)C(=O)N[C@@H](CCCCN)C(=O)N[C@@H](CCCNC(=N)N)C(=O)N[C@H](C(=O)N[C@H](C(=O)N[C@@H](CCC(N)=O)C(=O)N[C@@H](CCCNC(=N)N)C(=O)N[C@H](C(=O)N[C@@H](CCCCN)C(=O)N[C@@H](CC(=O)O)C(=O)N[C@@H](Cc1ccccc1)C(=O)N[C@@H](CC(C)C)C(=O)N[C@@H](CCCNC(=N)N)C(=O)N[C@@H](CC(N)=O)C(=O)N[C@@H](CC(C)C)C(=O)N[C@H](C(=O)N1CCC[C@H]1C(=O)N[C@@H](CCCNC(=N)N)C(=O)N[C@H](C(=O)N[C@@H](CCC(=O)O)C(=O)N[C@@H](CO)C(=O)O)[C@@H](C)O)C(C)C)[C@@H](C)CC)C(C)C)[C@@H](C)CC [LL-37, reference compound]
half-life at 0.5 g/L (P. aeruginosa elastase [9]): 3 min

MIC E. coli ATCC 25922 [2]: 8 µg/mL (≈ 3.38 µM) | MIC K. pneumoniae DSM 681 [3]: 8 µg/mL (≈ 3.38 µM)
Compound: CC(C)C[C@H](NC(=O)[C@H](CCCNC(=N)N)NC(=O)[C@@H]1CCCN1C(=O)[C@H](Cc1c[nH]cn1)NC(=O)[C@@H]1CCCN1C(=O)[C@@H]1CCCN1C(=O)[C@H](CCCNC(=N)N)NC(=O)[C@@H]1CCCN1C(=O)[C@H](CCCNC(=N)N)NC(=O)[C@@H]1CCCN1C(=O)[C@H](CCCN)NC(=O)[C@H](Cc1ccc(O)cc1)NC(=O)[C@@H](NC(=O)[C@@H]1CCCN1C(=O)[C@H](CCCNC(=N)N)NC(=O)[C@H](CCCN)NC(=O)[C@H](Cc1c[nH]c2ccccc12)NC(=O)[C@H](CCCN)N=C(N(C)C)N(C)C)C(C)C)C(=O)O [Api760, gu-OWORPVYOPRPRPPHPRL-OH, reference compound] ({Orn(α-tetramethylguanidino)}-W[Orn]RPVY[Orn]PRPRPPHPRL-OH)
times more active than Api137 against P. aeruginosa [1]: 16
